Experimental data reported in patent US12070465B2, “Compositions and methods for the prevention and treatment of hearing loss” (Ting Therapeutics LLC, priority 2020, dated 2024).

Experiments:
[1] = tested on: zebrafish neuromast hair cells; test: Zebrafish model for excitotoxicity (kainic acid induced hair cell death); format: in vivo; conditions: for performance compared with Piperlongumine against kainic acid (KA) induced hair cell death: KA 300 μM 1 hour, then derivative 2 hours at 1 nM to 100 μM, better at at least one dose
Experimental: 5dpf Tg(Brn3c:mGFP) larvae were used for the experiments. Zebrafish were pretreated with kainic acid for one hour (300 μM) to mimic the excitotoxic damage induced by noise exposure, and then, post-treated with Piperlongumine-25 for 2 hours (al concentrations of 0.001 μM; 0.1 μM; 10 μM; and 100 μM). Control animal were treated with DMSO (−) or Piperlongumine-25 alone (+). Animals were then fixed and immunostained for GFP. Quantification was done by assessing three neuromasts in the same anatomic location of each animal (n=5). The data is plotted as mean+SD. Statistical testing was done with One-way ANOVA and Dunnett post-hoc test (P<0.0001 compared to KA).
Subsequently, animals were transferred to E3 water for 5 hours and fixed in 4% paraformaldehyde (PFA) overnight. Neuromast HCs were immunolabeled with anti-otoferlin (HCS-1, DSHB) and anti-GFP (NB100-1614, Novus Biologicals). These two markers were used to detect and count neuromast HCs to reduce the chances of missing some of the HCs after the treatment since as it was previously noticed that incubation with the compounds can affect GFP expression more difficult to detect under a fluorescence microscope. Otic, middle, and opercular neuromasts were identified, and HCs at SO3 (supraorbital line neuromast) and O1-2 (Otic line neuromasts) were manually counted using a Zeiss AxioSkop 2 fluorescence microscope with a 40× oil objective. Control animals were treated with DMSO (−) or Neo or GM alone (+) Animals were then fixed and immunostained for GFP and otoferlin. Quantification was done by assessing three neuromasts in the same anatomic location of each animal (n=5). The data is plotted as mean+SD. Statistical testing was done with One-way ANOVA and Dunnett post-hoc test (*P<0.05, **P<0.01, ***P<0.001 compared to either Neo or GM, respectively). […] For the screening of piperlongumine derivatives for protection against noise-induced hearing loss we employed a zebrafish model that mimics excitotoxic damage. Five-day post-fertilization (dpf) Tg(brn3c:GFP) larvae were incubated with 300 μM of KA for 1 hour followed by piperlongumine-25 for 2 hours at 0.001 μM, 0.1 μM, 10 μM, and 100 μM. DMSO and KA were used as controls.
5 dpf fish were incubated with KA 300 μM for 1 hour followed by a two-hour incubation with one of the piperlongumine derivatives at 1 nM to 100 μM. Animals were fixed and immunostained for the hair cell marker, otoferlin. Neuromast hair cells were counted under a fluorescence microscope. At least 3 neuromast of the rostral lateral line were inspected per fish, in a total of 6 fish per treatment. Results are presented as mean+/−SD. Control, KA only, PG only, PG+KA, derivatives that were no protective against excitotoxicity, derivatives that performed better than PG.
5dpf fish were incubated with KA 300 μM for 1 hour followed by one of the PG derivatives at different concentrations for additional 2 hours. Animals were fixed and immunostained for otoferlin. Neuromast hair cells were quantified in at least 3 rostral neuromasts per fish in a total of 6 fish per treatment. Results are expressed as mean+/−SD. Statistical analysis: One-way ANOVA *P<0.05, **P<0.01, P<0.001 versus KA alone. These five Piperlongumine derivatives performed better than Piperlongumine at least one dose.

[2] = tested on: zebrafish lateral line neuromast hair cells; test: Zebrafish lateral line neuromast hair cell counts after aminoglycoside (neomycin or gentamycin); format: in vivo, Danio rerio; conditions: 5 dpf larvae
Excerpt: Now referring to FIGS. 5A-C,(E)-1-(3-(3,4,5-trimethoxyphenyl)acryloyl)-S,6-dihydropyridin-2(1H)-one (Piperlongumine) protects from aminoglycoside induced hair cell loss in zebrafish lateral line neuromasts in vivo. Zebrafish lateral line neuromast HC counts are commonly used in vivo models for screening otoprotectants. Danio rerio experimental larvae were obtained by pair mating of adult fish maintained at Creighton University by standard methods approved by the Institutional Animal Care and Use Committee. Fish used were Tg(pou4f3:mGFP) expressing a membrane bound GFP in HCs. […] The lateral-line neuromasts of zebrafish are a valuable system for testing protectivity of compounds against aminoglycoside toxicity in vivo, as their HCs are considered homologous to those in the mammalian inner ear and are readily accessible to drugs. […]
Subsequently, animals were transferred to E3 water for 5 hours and fixed in 4% paraformaldehyde (PFA) overnight. […] These two markers were used to detect and count neuromast HCs to reduce the chances of missing some of the HCs after the treatment since as it was previously noticed that incubation with the compounds can affect GFP expression more difficult to detect under a fluorescence microscope. […] Quantification was done by assessing three neuromasts in the same anatomic location of each animal (n=5). […]

[3] = tested on: C57BL/6 (Cdh23 corrected) mice; test: General toxicity in mice over the 17-day treatment regimen; format: in vivo, mouse; conditions: 40 mg/kg b.w. for 17 days, with and without kanamycin
Experimental: (§1) C57BI6 (Cdh23 corrected) (6-7 weeks old) were exposed to vehicle+kanamycin (Veh+Kan) (700 mg/kg b.w. twice a day for 14 days) (shown as circles with four breaks); or (E)-1-(3-(3,4,5-trimethoxyphenyl)acryloyl)-S,6-dihydropyridin-2(1H)-one+kanamycin (PLM+Kan) with (E)-1-(3-(3,4,5-trimethoxyphenyl)acryloyl)-S,6-dihydropyridin-2(1H)-one (40 mg/kg b.w. once a day for 17 days) (shown as circle no breaks). Age match controls are shown (age, shown as circle with three breaks). Auditory brainstem response (ABR) thresholds were recorded for frequencies (4 kHz, 5.6 kHz, 8 kHz, 16 kHz, 22.6 kHz, 32 kHz, 45.2 kHz, and 64 kHz) before and after treatment protocol. […] Statistical analysis was done with repeated measures ANOVA between groups.
Now referring to FIG. 8A, Piperlongumine protects from aminoglycoside toxicity in mice in vivo. 6-7-week-old C57BL/6 (Cdh23 corrected) were used, with a mix of males and females across experiments. Procedures were approved by the IACUC committee of the Creighton University.) Mice were treated with Piperlongumine (40 mg/kg b.w., for 17 days, IP) with or without kanamycin treatment (700 mg/kg b.w. for 14 days twice a day, s.q.). Piperlongumine's protection against hearing impairment loss was assessed by measuring ABR threshold shifts in the mouse ear.
Age-control group mice were administered saline. […] Data are presented as mean+SD, n=3-4/group.

[4] = tested on: mouse embryonic fibroblast (MEFs); test: MTT viability of mouse embryonic fibroblasts exposed to aminoglycosides; format: cell-based; conditions: 15 hours
Experimental: (§2) MEFs were incubated for 15 hours with neomycin (100 μM) or gentamicin (8 μM) with or without Piperlongumine (0.1 nM-5 μM). Cell viability was assessed employing MTT (3-(4-,5-dimethylthiazol-2-yl)-2,5-diphenyltetrazolium bromide) viability kit test (Thermo Fisher). The data is plotted as mean+SD. Statistical testing was done with One-way ANOVA and Dunnett post-hoc test (*P<0.05, **P<0.01 compared to either Neo or GM, respectively).
as §2, with “Now referring to FIG. 7 (E)-1-(3-(3,4,5-trimethoxyphenyl)acryloyl)-S,6-dihydropyridin-2(1H)-one protects mouse embryonic fibroblast (MEFs) against aminoglycosides. MEFs” for “MEFs”, “without(E)-1-(3-(3,4,5-trimethoxyphenyl)acryloyl)-S,6-dihydropyridin-2(1H)-one” for “without Piperlongumine”, “μM) at 0.1 nM, 0.5 nM, 1 nM, 5 nM, 10 nM, 50 nM, 100 nM, and 500 nM.” for “μM).”

[5] = tested on: C57BL/6 (Cdh23 corrected) mice; test: ABR thresholds in kanamycin exposed mice; format: in vivo, mouse; conditions: at 22.6 kHz; 40 mg/kg b.w. once a day for 17 days IP; kanamycin 700 mg/kg twice a day for 14 days; p=0.0408
Experimental: as §1
Now referring to FIG. 8A, Piperlongumine protects from aminoglycoside toxicity in mice in vivo. 6-7-week-old C57BL/6 (Cdh23 corrected) were used, with a mix of males and females across experiments. […] Piperlongumine's protection against hearing impairment loss was assessed by measuring ABR threshold shifts in the mouse ear.
Animals were anesthetized with a mixture of ketamine/xylazine before ABR assessment. […] Evoked responses were amplified (20x), bandpass filtered (300-3,000 Hz) and average of 512 responses of 10 ms duration was recorded. […]

Structure (SMILES): O=C(/C=C/c1ccco1)N1CCC1=O [PG3]
- performance compared with Piperlongumine against kainic acid (KA) induced hair cell death [1]: better performance than Piperlongumine

Structure (SMILES): COc1cccc(/C=C/C(=O)N2CCCCC2=O)c1 [PG25]
- protection of neuromast hair cells from excitotoxic damage induced by kainic acid ([1]; 300 μM KA 1 hour, then compound 2 hours at 0.001 μM, 0.1 μM, 10 μM, 100 μM): protects neuromast hair cells from excitotoxic damage
- performance compared with Piperlongumine against kainic acid (KA) induced hair cell death [1]: better performance than Piperlongumine

Structure (SMILES): O=C(/C=C/c1ccccc1)N1CCC1=O [PG 18]
- performance compared with Piperlongumine against kainic acid (KA) induced hair cell death [1]: better performance than Piperlongumine

Structure (SMILES): O=C(/C=C/c1ccc2c(c1)OC(F)(F)O2)N1CCCCCC1=O [PG 53]
- performance compared with Piperlongumine against kainic acid (KA) induced hair cell death [1]: better performance than Piperlongumine

Structure (SMILES): O=C(/C=C/c1ccc2c(c1)OC(F)(F)O2)N1CCCCC1=O [PG 54]
- performance compared with Piperlongumine against kainic acid (KA) induced hair cell death [1]: better performance than Piperlongumine

Structure (SMILES): COc1cc(/C=C/C(=O)N2CCC=CC2=O)cc(OC)c1OC [Piperlongumine, (E)-1-(3-(3,4,5-trimethoxyphenyl)acryloyl)-S,6-dihydropyridin-2(1H)-one]
- protection from gentamycin-induced hair cell death ([2]; 1 hour pre-incubation then co-incubation with 100 μM gentamycin for 1 hour): protects zebrafish neuromasts from gentamycin-induced hair cell death
- protection from neomycin-induced hair cell death ([2]; 1 hour pre-incubation then co-incubation with 200 μM Neomycin for 30 minutes): protects zebrafish neuromasts from neomycin-induced hair cell death
- general toxicity [3]: not toxic
- protection of MEFs against gentamycin (cell viability, MTT) ([4]; gentamicin 8 μM, observed at 0.1 nM to 1 nM): 100%
- protection of MEFs against neomycin (cell viability, MTT) ([4]; neomycin 100 μM, observed at 0.1 nM to 10 nM): 100%
- protection of ABR threshold against kanamycin [5]: significant protection
